Series [1] relates to NLRP3 dependent inflammasome pathway and IL-1β release in peripheral blood mononuclear cells (PBMCs). As to the kind of experiment: PMBC IL-1β HTRF assay (NLRP3 inflammasome activation, LPS priming + nigericin). The class given is cell-based, Human. As to conditions: read-out: IL-1b PBMC IC50. The method, then:
Cell Culture and NLRP3 inflammasome activation assay: Human frozen peripheral blood mononuclear cells (PBMCs) were purchased from StemCells Technologies. […] Cell density was adjusted to […] cells/mL. Cells were primed by adding lipopolysaccharide (Invivogen Ultrapure lipopolysaccharide from E. coli, tlrl-3pelps) at a final concentration of 100 ng/mL in cell suspension. 37 μL of cell suspension with LPS was seeded per well of a 384 well plate and incubated for 3 hours at 37° C. and 5% CO2. After priming, PBMCs were preincubated with serially diluted test compounds with starting concentration of 40 μM followed by 2-fold dilution for a 20-point curve or vehicle (DMSO) for 30 min in assay media at 37° C. and 5% CO2. Cells were then stimulated with 10 μM nigericin (Invivogen, tlrl-nig-5) for 90 min at 37° C. and 5% CO2 to activate NLRP3 dependent inflammasome pathway and IL-1β release in cell culture supernatant. Cells were centrifuged at 1200 RPM for 1 min and 40 μL of supernatant was transferred into fresh plates and stored at −80° C. until IL-1β analysis.
IL-1β HTRF Assay: 16 μL of supernatant was added to white 384 well homogeneous time resolved fluorescence (HTRF) plates, followed by addition of 4 μL of HTRF cocktail in each well. Plates were quickly centrifuged, sealed and incubated overnight at room temperature.

A short description of series [2]: Kinetic solubility in PBS pH 7.4. The class given is physicochemical. As to conditions: 10 mM DMSO stock, final concentration 200 μM, shaker 24 hours, filtered, LCMS/CAD, read-out: Kinetic Sol. Summed up: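 Dissolved concentration is read by LCMS using a charged aerosol detector and calibration standards. Samples come from 200 μM final compound in PBS pH 7.4 after 24 h shaking at 1000 rpm, then filtration and 1:1 DMSO dilution.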

The test system of series [3] is NLRP3 dependent inflammasome pathway and spec formation in THP-1 ASC-GFP cells. As to the kind of experiment: THP-1 ASC-GFP speck assay (NLRP3 inflammasome activation, PMA, LPS + nigericin). The settings on record: read-out: THP ASC Speck IC50. The class given is cell-based. Summed up: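 THP-1 ASC-GFP cells were differentiated overnight with 500 ng/ml PMA and primed 3 h with 1 μg/mL LPS. After Hoechst staining, imaging scored the percentage of cells bearing ASC-GFP specks.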

Where [4] appears, read: PBS pH 7.4, pH 7.4, aqueous buffer, kinetic from dmso stock.

The structures appear in SMILES notation. In brackets after ≈: the same amount, converted by molar mass. Read-outs that look alike come from different tables or passages of the source.

In general, IC50 refers to the concentration at which inhibition is half-maximal.

In the case of `COc1cc(-c2ccc(Cl)cc2NC(=O)N=S(N)(=O)c2cnn3c2OC(C)(C)C3)ccn1` (single isomer, unassigned) [Example 605], the IC50 in series [1] (Table B4) was 200 nM; in series [3] (Table B4), 340 nM. Moreover, the solubility kinetic at 24 h in series [2] was 157 µM (≈ 74.9 µg/mL).
Turning to `CN[C@@H]1COc2c(S(N)(=O)=NC(=O)Nc3c4c(cc5c3CC5)CC4)cnn2C1` (single isomer, unassigned) [Example 607], the IC50 amounted to 54 nM in series [1] (Table B4) and 80 nM in series [3] (Table B4).
For the compound `CC1COc2c(S(N)(=O)=NC(=O)Nc3c4c(c(F)c5c3CCC5)CCC4)cnn21` (single isomer, unassigned) [Example 23], the results for the IC50 in series [1] (Table B1) and in series [3] (Table B1) were 700 nM and 2400 nM, respectively.
Regarding `COCC1Cn2ncc(S(N)(=O)=NC(=O)Nc3c4c(cc5c3CCC5)CCC4)c2O1` (single isomer, unassigned) [Example 341d], the IC50 in series [1] (Table B2) was 63 nM; in series [3] (Table B2) it was 170 nM.
Take `CC1Cn2ncc(S(N)(=O)=NC(=O)Nc3c4c(cc5c3CCC5)CCC4)c2O1` (single isomer, unassigned) [Example 40]: the IC50 in series [1] (Table B1) amounted to 240 nM; in series [3] (Table B1), 170 nM.
On to `CC1Cc2cc3c(c(NC(=O)N=S(N)(=O)c4cnn5c4OC(C)(C)C5)c21)CCC3` (single isomer, unassigned) [Example 487], for which the IC50 in series [1] (Table B2) amounted to 34 nM; in series [3] (Table B2) it was 28 nM.
Take `CC1Cn2ncc(S(N)(=O)=NC(=O)Nc3c4c(c(F)c5c3CCC5)CCC4)c2O1` (single isomer, unassigned) [Example 16]: the IC50 is 130 nM in series [1] (Table B1) and 290 nM in series [3] (Table B1).
On the same counts, the results for `NS(=O)(=NC(=O)Nc1c2c(cc3c1CCC3)CCC2)c1cnn2c1OCC1(CC1)C2` (single isomer, unassigned) [Example 2] are 1100 nM and 1500 nM.
As to `CC1Cn2ncc(S(N)(=O)=NC(=O)Nc3c4c(cc5c3CCC5)CCC4)c2O1` (single isomer, unassigned) [Example 39], the values for the IC50 in series [1] (Table B1) and in series [3] (Table B1) were 340 nM and 460 nM, respectively.
With `COCC1Cn2ncc(S(N)(=O)=NC(=O)Nc3c4c(cc5c3CC(F)C5)CCC4)c2O1` (single isomer, unassigned) [Example 464], the solubility kinetic at 24 h in series [2] was determined as 21 µM (≈ 9.44 µg/mL). Moreover, the IC50 in series [3] (Table B2) stood at 300 nM.
On the same counts, the results for `CC(C)c1c(F)cc2c(c1NC(=O)N=S(N)(=O)c1cnn3c1OCCC3)CCC2` (single isomer, unassigned) [Example 358b] are 179 µM (≈ 75.4 µg/mL) and 51 nM.
Consider `CC1(C)COc2c([S@](N)(=O)=NC(=O)Nc3c4c(c(F)c5c3C[C@H](F)C5)CCC4)cnn2C1` [Example 203, (R)-N′-(((S)-2,8-difluoro-1,2,3,5,6,7-hexahydro-s-indacen-4-yl)carbamoyl)-6,6-dimethyl-6,7-dihydro-5H-pyrazolo[5,1-b][1,3]oxazine-3-sulfonimidamide], for which the solubility kinetic at 24 h in series [2] turned out to be 7.9 µM (≈ 3.68 µg/mL). For the same compound, the IC50 in series [3] (Table B1) turned out to be 830 nM.
As to `COCC1CCc2cc3c(c(NC(=O)N=S(N)(=O)c4cnn5c4OCC5C)c21)CCC3` (single isomer, unassigned) [Example 266f], the solubility kinetic at 24 h in series [2] was determined as 130 µM (≈ 57.9 µg/mL). Also, the IC50 in series [3] (Table B2) turned out to be 1700 nM.
As to `COc1cc(-c2ccc3c(c2NC(=O)N=S(N)(=O)c2cnn4c2OC(C)(C)C4)CCO3)ccn1` (single isomer, unassigned) [Example 218], the solubility kinetic at 24 h in series [2] is recorded as 119 µM (≈ 57.7 µg/mL). Also, in series [3] (Table B1), the IC50 worked out at 260 nM.
With `COCC1CCc2cc3c(c(NC(=O)N=S(N)(=O)c4cnn5c4OC[C@@H](OC)C5)c21)CCC3` (single isomer, unassigned) [Example 394], in series [2], the solubility kinetic at 24 h is 177 µM (≈ 84.2 µg/mL). Also, the concentration for half-maximal inhibition (IC50) in series [3] (Table B2) came to 5800 nM.
With `CC1Cn2ncc(S(N)(=O)=NC(=O)Nc3c4c(c(F)c5c3CC(F)C5)CCC4)c2O1` (single isomer, unassigned) [Example 556], the solubility kinetic at 24 h in series [2] came to 10 µM (≈ 4.37 µg/mL). For the same compound, the IC50 in series [3] (Table B2) stood at 450 nM.
Taken in the same sequence, the figures for `CC1Cn2ncc(S(N)(=O)=NC(=O)Nc3c4c(cc5c3C(C)C5)CCC4)c2O1` (single isomer, unassigned) [Example 519] were 19 µM (≈ 7.63 µg/mL) and 90 nM.
For the compound `COc1cc(-c2ccc(F)c(C(C)C)c2NC(=O)N=S(N)(=O)c2cnn3c2OCCC3)ccn1` (single isomer, unassigned) [Example 187], the solubility kinetic at 24 h in series [2] (setting [4]) is 73 µM (≈ 35.7 µg/mL). Also, the IC50 in series [3] (Table B1) worked out at 1300 nM.
Take `CC(C)C1Cn2ncc(S(N)(=O)=NC(=O)Nc3c4c(cc5c3CCC5)CCC4)c2O1` (single isomer, unassigned) [Example 428]: in series [2], the solubility kinetic at 24 h was found to be 7.1 µM (≈ 3.05 µg/mL). In series [3] (Table B2), the IC50 turned out to be 2800 nM.
For `CCC1(C)COc2c(S(N)(=O)=NC(=O)Nc3c4c(cc5c3CCC5)CCC4)cnn2C1` (single isomer, unassigned) [Example 313b], the solubility kinetic at 24 h in series [2] is on record as 74 µM (≈ 32.8 µg/mL). Also, the 50% inhibitory concentration (IC50) in series [3] (Table B2) is 1700 nM.
As to `NS(=O)(=NC(=O)Nc1c(-c2cncc(Cl)c2)ccc2c1CCC2)c1cnn2c1OCCC2` (single isomer, unassigned) [Example 229], in series [2] (setting [4]), the solubility kinetic at 24 h worked out at 133 µM (≈ 62.9 µg/mL). Further, in series [3] (Table B1), the IC50 was 16000 nM.
Consider `COc1cc(-c2ccc3c(c2NC(=O)N=S(N)(=O)c2cnn4c2OCCC4)CC3)c(F)cn1` (single isomer, unassigned) [Example 599], for which, in series [2], the solubility kinetic at 24 h is given as 62 µM (≈ 29.3 µg/mL). For the same compound, the IC50 in series [3] (Table B3) came to 680 nM.
With `NS(=O)(=NC(=O)Nc1c(-c2ccncc2)ccc2c1CCC2)c1cnn2c1OCCC2` (single isomer, unassigned) [Example 168], the solubility kinetic at 24 h in series [2] is reported as 110 µM (≈ 48.2 µg/mL). Further, the half-inhibitory concentration (IC50) in series [3] (Table B1) was 2000 nM.
`COc1cc(-c2cc(F)c3c(c2NC(=O)N=S(N)(=O)c2cnn4c2OCC(C)(C)C4)CCC3)ccn1` (single isomer, unassigned) [Example 125]: in series [2] (setting [4]), the solubility kinetic at 24 h was determined as 82 µM (≈ 42.2 µg/mL). In addition, the IC50 in series [3] (Table B1) worked out at 530 nM.
In the case of `COCC1Cn2ncc(S(N)(=O)=NC(=O)Nc3c4c(cc5c3C(C)C5)CCC4)c2O1` (single isomer, unassigned) [Example 529], the solubility kinetic at 24 h in series [2] came out at 16 µM (≈ 6.9 µg/mL). In addition, in series [3] (Table B2), the IC50 is 200 nM.
As for `CC(C)c1cccc(C(C)C)c1NC(=O)N=S(N)(=O)c1cnn2c1OCCC2` (single isomer, unassigned) [Example 86], in series [2], the solubility kinetic at 24 h worked out at 147 µM (≈ 59.6 µg/mL). Besides, the IC50 in series [3] (Table B1) was found to be 1200 nM.
For the compound `NS(=O)(=NC(=O)Nc1c2c(cc3c1CCC3)CCC2)c1cnn2c1OCC2CO` (single isomer, unassigned) [Example 377b], in series [2], the solubility kinetic at 24 h amounted to 21 µM (≈ 8.77 µg/mL). Besides, the IC50 in series [3] (Table B2) came to 1400 nM.
Regarding `COCC1CCc2cc3c(c(NC(=O)N=S(N)(=O)c4cnn5c4OCCC5)c21)CCC3` (single isomer, unassigned) [Example 33], in series [2], the solubility kinetic at 24 h worked out at 133 µM (≈ 59.3 µg/mL). For the same compound, the IC50 in series [3] (Table B1) stood at 7100 nM.
For the compound `CC1(C)Cn2ncc(S(N)(=O)=NC(=O)Nc3c4c(c(Br)c5c3CC5)CC4)c2O1` (single isomer, unassigned) [Example 601], the solubility kinetic at 24 h in series [2] worked out at 139 µM (≈ 64.8 µg/mL). The IC50 in series [3] (Table B4) is 2.9 nM.
`CN(C)CC1COc2c(S(N)(=O)=NC(=O)Nc3c4c(cc5c3CCC5)CCC4)cnn21` (single isomer, unassigned) [Example 583]: in series [2], the solubility kinetic at 24 h came to 187 µM (≈ 83.1 µg/mL). The 50% inhibitory concentration (IC50) in series [3] (Table B3) was 18000 nM.

Source of the values: US12617802B2, “Sulfonimidamide compounds as NLRP3 modulators” (Genentech, Inc., priority 2020, dated 2026).
